Results published in article PMC3920478, “Small molecule-mediated refolding and activation of myosin motor function” (eLife, 2014).

What was measured:
Dd myosin-2 motor domain = target: T1, Dd myosin-2 motor domain (Dictyostelium discoideum, UniProt P08799); experiment: Microscale thermophoresis direct binding; settings: 100 nM, read-out: Binding affinity (MST), KD
T1 sequence (P08799 1-761 limits assumed): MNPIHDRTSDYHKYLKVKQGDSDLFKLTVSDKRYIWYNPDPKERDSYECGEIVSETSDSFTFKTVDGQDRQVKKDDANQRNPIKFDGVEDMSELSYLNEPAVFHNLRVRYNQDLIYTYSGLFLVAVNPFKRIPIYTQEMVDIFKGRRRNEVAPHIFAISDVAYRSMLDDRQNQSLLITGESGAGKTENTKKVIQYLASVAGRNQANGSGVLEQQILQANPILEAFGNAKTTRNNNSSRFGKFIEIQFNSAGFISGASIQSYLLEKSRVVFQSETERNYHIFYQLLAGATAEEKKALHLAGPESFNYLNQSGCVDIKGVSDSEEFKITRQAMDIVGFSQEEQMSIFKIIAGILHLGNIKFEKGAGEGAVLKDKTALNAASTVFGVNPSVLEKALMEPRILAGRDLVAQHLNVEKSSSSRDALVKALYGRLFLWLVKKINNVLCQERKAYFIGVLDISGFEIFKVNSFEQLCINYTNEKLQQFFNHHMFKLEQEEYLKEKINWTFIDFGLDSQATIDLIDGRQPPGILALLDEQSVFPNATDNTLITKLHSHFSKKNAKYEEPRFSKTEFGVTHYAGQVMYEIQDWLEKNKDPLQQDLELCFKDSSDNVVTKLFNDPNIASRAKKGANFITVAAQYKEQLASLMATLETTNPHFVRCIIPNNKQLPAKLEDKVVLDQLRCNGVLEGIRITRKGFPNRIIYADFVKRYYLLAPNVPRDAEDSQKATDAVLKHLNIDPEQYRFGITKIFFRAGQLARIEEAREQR
Source text: (§1) Proteolytic fragments were further purified by actin-coprecipitation.

β-cardiac myosin S1 = target: T2, β-cardiac myosin S1 (Sus scrofa, UniProt P79293); experiment: Microscale thermophoresis direct binding; set-up: species or system Porcine
T2 construct: S1 and HMM fragments were produced by proteolytic digestion of the full-length proteins with 0.05 mg/ml papain; from tissue; host or cells: porcine cardiac muscle
Source text: as §1

Dd myosin-5 motor domain = target: T3, Dd myosin-5 motor domain (Dictyostelium discoideum, UniProt P54697); experiment: Direct binding to motor domain construct
T3 sequence (P54697 1-821 limits assumed): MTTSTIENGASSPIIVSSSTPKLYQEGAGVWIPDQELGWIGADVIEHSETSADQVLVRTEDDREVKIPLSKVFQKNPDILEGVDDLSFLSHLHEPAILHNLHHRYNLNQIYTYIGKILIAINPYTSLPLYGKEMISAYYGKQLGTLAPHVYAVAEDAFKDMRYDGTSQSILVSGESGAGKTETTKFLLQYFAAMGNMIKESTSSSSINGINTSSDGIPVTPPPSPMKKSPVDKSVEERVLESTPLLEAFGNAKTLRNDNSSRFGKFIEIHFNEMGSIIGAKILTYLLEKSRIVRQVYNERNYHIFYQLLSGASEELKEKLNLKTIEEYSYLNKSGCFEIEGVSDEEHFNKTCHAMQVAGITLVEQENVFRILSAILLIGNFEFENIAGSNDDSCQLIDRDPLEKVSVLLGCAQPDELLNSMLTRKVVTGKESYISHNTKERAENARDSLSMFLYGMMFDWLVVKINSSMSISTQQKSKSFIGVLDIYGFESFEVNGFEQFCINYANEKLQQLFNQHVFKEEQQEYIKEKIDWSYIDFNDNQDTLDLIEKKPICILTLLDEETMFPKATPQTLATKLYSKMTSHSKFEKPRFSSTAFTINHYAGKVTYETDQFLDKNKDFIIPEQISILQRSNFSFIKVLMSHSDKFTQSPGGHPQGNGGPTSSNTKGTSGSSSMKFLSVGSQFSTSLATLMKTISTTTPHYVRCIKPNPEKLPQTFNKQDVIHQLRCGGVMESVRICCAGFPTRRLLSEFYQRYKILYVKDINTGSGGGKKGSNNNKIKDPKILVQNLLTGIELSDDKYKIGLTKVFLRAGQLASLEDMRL
Source text: as §1

[1] = target: T4, complex formed by the β-cardiac myosin motor domain with F-actin (Sus scrofa, UniProt P79293); experiment: Melting curve by differential static light scattering; settings: 100 µM EMD 57033
T4 construct: Melting curves of the complex formed by the β-cardiac myosin motor domain with F-actin; from tissue; host or cells: porcine cardiac muscle (myosin)
Protocol: Circular dichroism and differential static light scattering experiments were performed to determine Tm.
Protein stability was assayed following protein aggregation associated with heat denaturation ([Senisterra et al., 2006]). Protein solutions were diluted to a concentration of 0.2 mg/ml in a buffer containing 5 mM KPi pH 7.5, 25 mM KCl and heated in steps of 0.6°C. Static light scattering was measured at each temperature step and the resulting transition curve was fitted by a Boltzmann function. The transition midpoint gives a measure for the aggregation temperature induced by protein denaturation.

phosphodiesterase III = test system: phosphodiesterase III; set-up: method as in Gambassi et al., 1993; settings: ref Gambassi et al., 1993; cited from earlier work

T2 sequence (P79293 1-843 limits assumed): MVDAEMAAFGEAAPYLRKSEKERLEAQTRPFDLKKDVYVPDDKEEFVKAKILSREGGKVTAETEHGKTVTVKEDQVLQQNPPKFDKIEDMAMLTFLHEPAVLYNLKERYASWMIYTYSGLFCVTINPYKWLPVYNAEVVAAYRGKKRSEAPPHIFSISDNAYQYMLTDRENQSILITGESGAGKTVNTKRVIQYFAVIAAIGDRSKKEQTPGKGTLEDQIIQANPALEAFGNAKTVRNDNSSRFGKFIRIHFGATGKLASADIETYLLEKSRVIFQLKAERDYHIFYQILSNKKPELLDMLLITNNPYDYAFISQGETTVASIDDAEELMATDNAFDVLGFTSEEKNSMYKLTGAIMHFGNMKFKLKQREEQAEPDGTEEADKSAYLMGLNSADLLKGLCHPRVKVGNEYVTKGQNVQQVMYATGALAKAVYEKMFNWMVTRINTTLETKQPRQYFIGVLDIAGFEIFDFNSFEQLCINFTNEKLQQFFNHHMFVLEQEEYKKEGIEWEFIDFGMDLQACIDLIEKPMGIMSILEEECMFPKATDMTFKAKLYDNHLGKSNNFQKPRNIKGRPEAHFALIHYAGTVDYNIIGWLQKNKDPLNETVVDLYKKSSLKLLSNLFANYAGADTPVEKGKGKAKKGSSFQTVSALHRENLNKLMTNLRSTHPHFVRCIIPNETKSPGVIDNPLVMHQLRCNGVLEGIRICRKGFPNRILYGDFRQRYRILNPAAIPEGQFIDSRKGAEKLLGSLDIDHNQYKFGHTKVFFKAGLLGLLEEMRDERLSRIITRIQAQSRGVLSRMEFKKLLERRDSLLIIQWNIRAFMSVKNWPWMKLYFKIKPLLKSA
T4 sequence (P79293 1-843 limits assumed, one chain of several): as the sequence (P79293 1-843 limits assumed) above

Q: With `COc1ccc(C(=O)N2CCCc3cc(C4=NNC(=O)SC4C)ccc32)cc1OC` (stereo not drawn) [EMD 57033] as the molecule, how does the Kd (Dd myosin-2 motor domain) read?
A: The Kd was 23 µM.

Q: What about the Binding stoichiometry (β-cardiac myosin S1) of the same molecule?
A: The Binding stoichiometry was “one molecule of EMD 57033 per myosin head”.

Q: And the Kd (β-cardiac myosin S1; fluorescently labeled β-cardiac myosin S1, 100 nM, fit to Hill equation, read-out: Binding affinity (MST), KD)?
A: The Kd was 7.3 µM.

Q: What about the “Direct binding to the motor domain” value (Dd myosin-5 motor domain) of the same molecule?
A: Its value is “Direct binding of EMD 57033 to the motor domain was observed”.

Q: What about the “Tm (mid-point of transition)” value [1] of the same molecule?
A: The value was 66.4 ± 3 °C.

Q: And the “Phosphodiesterase III inhibition” value (phosphodiesterase III)?
A: The value was “only minimal phosphodiesterase III inhibitory effects”.
